US20080261896A1, “Testosterone generating and metabolizing enhancer” (Sinphar Pharmaceutical Co., Ltd., priority 2007, published 2008)

Test system: mouse Leydig tumor cell line R2C
Experiment: Test 1: testosterone generation of the mouse Leydig tumor cell line R2C (Testosterone EIA kit)
Type: cell-based
Conditions: R2C cells
Source text: Test 1: Testing testosterone generation of the mouse Leydig tumor cell line R2C.
Materials: The extract of C. tubulosa prepared in the aforesaid first embodiment, and said echinacoside and acteoside used in the second and the third embodiments. The mouse Leydig tumor cell line R2C was obtained from the Japan Health Sciences Foundation (Osaka), and a Testosterone EIA testing kit was used to test testosterone levels.
Method: The R2C cells were subcultured in a cell medium called Ham's F10, which comprised 15% bovine serum, 2.5% fetal bovine serum, 100 units/mL penicillin G, and 100 μg/mL streptomycin. The cells were inoculated on a 24-hole plate at a density of 5×10^5 cells/mL, and 500 μL of the cell medium was added into each hole. After culturing for 24 hours, 50 μL of solutions resulted from dissolving samples from the first to the third embodiments in the same cell medium was added into each hole. After culturing for another 4 fours, the cells were collected along with the cell medium and subjected to centrifugation, so as to collect supernatant that included the cell medium. The Testosterone EIA testing kit (manufactured by Cayman Chemical Corporate) was used to determine testosterone concentrations in the each tested sample, and the results were shown in FIG. 1.

Row | SMILES | testosterone generation (testosterone level in the supernatant) versus control (10 μg/mL) | testosterone generation (testosterone level in the supernatant) versus control (30 μg/mL) | testosterone generation (testosterone level in the supernatant) versus control (100 μg/mL)
1 | C[C@@H]1O[C@@H](O[C@@H]2[C@@H](O)[C@H](OCCc3ccc(O)c(O)c3)O[C@H](CO[C@@H]3O[C@H](CO)[C@@H](O)[C@H](O)[C@H]3O)[C@H]2OC(=O)/C=C/c2ccc(O)c(O)c2)[C@H](O)[C@H](O)[C@H]1O [echinacoside] | increased | increased | increased to twice as much as that of the control
2 | C[C@@H]1O[C@@H](O[C@@H]2[C@@H](O)[C@H](OCCc3ccc(O)c(O)c3)O[C@H](CO)[C@H]2OC(=O)/C=C/c2ccc(O)c(O)c2)[C@H](O)[C@H](O)[C@H]1O [acteoside] | increased |  | increased
